Our source for the Emax, EC50 and IC50 values is US20140057895A1, “INDAZOLE- AND PYRROLOPYRIDINE-DERIVATIVE AND PHARMACEUTICAL USE THEREOF” (priority 2011, published 2014).

Each structure is given as a SMILES string. Counter-ions that a name gives are not always drawn. A value given as a limit tells only on which side of the number the result lay.

As a reminder, the EC50 is the midpoint of the concentration-response curve. Read a low EC50 as greater potency. Usually IC50 stands for the concentration needed to halve the response being measured.

In one assay the target is T1, human 5-HT4b receptor (Homo sapiens, UniProt Q13639).
T1 construct: expressed in transfected cells; host or cells: CHO cells (G418 selection)
T1 sequence (Q13639 whole entry): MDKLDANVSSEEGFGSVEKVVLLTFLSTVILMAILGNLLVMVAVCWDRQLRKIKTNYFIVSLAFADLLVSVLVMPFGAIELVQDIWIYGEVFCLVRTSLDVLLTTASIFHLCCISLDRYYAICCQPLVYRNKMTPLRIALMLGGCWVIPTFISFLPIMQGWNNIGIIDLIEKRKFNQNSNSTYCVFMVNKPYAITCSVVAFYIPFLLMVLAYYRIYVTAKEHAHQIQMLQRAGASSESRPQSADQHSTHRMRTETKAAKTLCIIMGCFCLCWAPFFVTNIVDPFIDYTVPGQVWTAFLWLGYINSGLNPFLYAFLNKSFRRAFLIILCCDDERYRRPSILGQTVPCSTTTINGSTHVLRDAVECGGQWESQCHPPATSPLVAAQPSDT
The experiment in a line: Test Example 4: Serotonin 4 (5-HT4) receptor agonist activity assay, cAMP HTRF in CHO cells (Table 100). As to conditions: mean value; for Emax: CHO, 0.25 h, intrinsic activity, maximal activity of 5-HT defined as 100%, read-out: IA (%); for EC50: concentration showing 50% of IA. Format: cell-based. On the procedure: The cAMP measurement test used herein was carried out by using CISBIO HTRF (trademark) cAMP Hirange kit according to the manufacturer's instructions attached therewith.
CHO cells expressing human 5-HT4b receptor were incubated in Medium 1 [DMEM/1% NEAA, 1% penicillin/streptomycin (P/S), 0.2 mg/mL GENETICIN (G418), 10% FBS] at 37° C. under 5% CO2 condition. Then, the cells were put into Medium 2 (DMEM/10000 cut FBS, G-418, P/S, NEAA) for 1 to 2 hours, and collected by treating with trypsin containing EDTA. The collected cells were suspended in Assay Buffer 1 [100 mM Hanks/HEPES buffer (pH 7.4)], the suspended cells were mixed with the testing compound on 384-well plates, and the cells were incubated at 31° C. for 15 minutes. To the cells were added cAMP-cryptate solution and cAMP-d2 solution, and they were incubated at room temperature for 1 hour. Then, time-resolved fluorescence was measured by En Vision (excitation wavelength: 330 nm, fluorescence wavelength: 620/665 nm).
An intrinsic activity of the compound [IA (%)] and a concentration showing 50% of IA [EC50 (nM)] were calculated from the obtained results. In particular, the intrinsic activity (IA) was calculated on the basis of the maximal activity of 5-HT (measured from 10^−11 M to 10^−7 M) defined as 100%.
In the following table, the compounds used in the test are shown in numbers which correspond to the Example numbers above where the preparations of the compounds are described.

The target in a further assay is T2, 5-HT4 receptor (Cavia porcellus, UniProt O70528).
T2 construct: striatum was isolated which was cryopreserved at −80° C. until use; from tissue; host or cells: guinea pig (Slc-Hartley) striatum membranes
T2 sequence (O70528 whole entry): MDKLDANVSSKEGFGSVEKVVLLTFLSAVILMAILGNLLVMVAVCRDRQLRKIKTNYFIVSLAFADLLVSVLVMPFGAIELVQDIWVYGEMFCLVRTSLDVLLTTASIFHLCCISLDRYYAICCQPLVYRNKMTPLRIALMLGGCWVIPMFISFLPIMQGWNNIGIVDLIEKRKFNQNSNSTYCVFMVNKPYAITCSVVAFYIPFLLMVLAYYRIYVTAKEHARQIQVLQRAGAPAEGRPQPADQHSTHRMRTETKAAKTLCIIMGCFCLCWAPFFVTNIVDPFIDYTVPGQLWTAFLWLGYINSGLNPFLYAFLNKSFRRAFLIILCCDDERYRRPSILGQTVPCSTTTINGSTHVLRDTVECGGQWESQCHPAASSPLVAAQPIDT
The assay is described as follows: Test Example 3: Guinea pig 5-HT4 receptor binding assay, [3H]-GR113808, striatum membranes (Table 98). As to conditions: Guinea pig 5-HT4 receptor binding assay, [3H]-GR113808, striatum membranes; mean value of each group; read-out: IC50. As for the experimental part:
The guinea pig 5-HT4 receptor binding assay and preparations of receptor membrane preparations herein were carried out according to a method of Grossman et al. [see, British J. Pharmacol., (1993) 109, 618].
Slc-Hartley guinea pigs (body weight 300 g to 400 g) were decapitated to remove brain rapidly, and striatum was isolated which was cryopreserved at −80° C. until use. To the obtained tissues were added fifteen fold of Hepes buffer (50 mM, pH 7.4, 4° C.), and the mixture was homogenized by Teflon (trademark) homogenizer and centrifuged at 48,000×g (4° C.) for 15 minutes. To the resulting precipitate was added Hepes buffer (1 ml) to 30 mg by wet weight of tissues, and the mixture was suspended to give receptor membrane preparations.
To an assay tube were added 0.1 nM [^3H]-GR113808 {chemical name: [1-[2-(methylsulfonylamino) ethyl]-4-piperidinyl]methyl 1-methylindole-3-carboxylate}, receptor membrane preparations, and Hepes buffer (50 mM, pH 7.4, 4° C., 1 ml) containing test compounds or 30 μM serotonin; and the mixture was incubated at 37° C. for 30 minutes. On quenching the reaction, the mixture was rapidly filtered on whatman GF/B filter, which was presoaked in 0.1% polyethyleneimine for 1 hour, by using Brandel cell Harvester, and washed with ice-cooled 50 mM Tris-HCl (pH 7.7, 4 ml) three times. To the filter after filtration was added a liquid scintillator (Ecoscint), and then a radioactivity was determined by a liquid scintillation counter.
50% Inhibition concentrations (IC50) were determined from inhibition rates of test compounds to specific bindings which were obtained by subtracting nonspecific bindings from total binding amounts of [^3H]-GR113808. […]

Take `CCc1nn(-c2noc(C3CCN(C[C@@H]4CCN(C(C)=O)C4)CC3)n2)c2c(F)cccc12` [Example 201, 1-[(3S)-3-({4-[3-(3-ethyl-7-fluoro-1H-indazol-1-yl)-1,2,4-oxadiazol-5-yl]piperidin-1-yl}methyl)pyrrolidin-1-yl]ethanone]: on human 5-HT4b receptor, the Emax came out at 39.7% and the response was half-maximal at 6.8 nM (EC50). For the same compound, the IC50 at 5-HT4 receptor was under 20 nM.

`CCc1nn(-c2noc(C3CCN(C[C@@H]4CCN(C(=O)COC)C4)CC3)n2)c2c(F)cccc12` [Example 202, 1-[(3S)-3-({4-[3-(3-ethyl-7-fluoro-1H-indazol-1-yl)-1,2,4-oxadiazol-5-yl]piperidin-1-yl}methyl)pyrrolidin-1-yl]-2-methoxyethanone]: on human 5-HT4b receptor, the Emax stood at 39% and the 50% effective concentration (EC50) amounted to 5.8 nM. Also, the IC50 at 5-HT4 receptor was under 20 nM.

Take `CCc1nn(-c2noc(C3CCN(C[C@@H]4CCN(S(C)(=O)=O)C4)CC3)n2)c2c(F)cccc12` [Example 203, 3-ethyl-7-fluoro-1-[5-(1-{[(3S)-1-(methylsulfonyl)pyrrolidin-3-yl]methyl}piperidin-4-yl)-1,2,4-oxadiazol-3-yl]-1H-indazole]: at human 5-HT4b receptor, the Emax stood at 71.8% and a half-maximal response (EC50) required 1.1 nM. For the same compound, on 5-HT4 receptor, the IC50 is under 20 nM.

Turning to `CCc1nn(-c2noc(C3CCN(C[C@H]4CCN(C(C)=O)C4)CC3)n2)c2c(F)cccc12` [Example 209, 1-[(3R)-3-({4-[3-(3-ethyl-7-fluoro-1H-indazol-1-yl)-1,2,4-oxadiazol-5-yl]piperidin-1-yl}methyl)pyrrolidin-1-yl]ethanone hydrochloride], at human 5-HT4b receptor, the Emax amounted to 79.1% and the response was half-maximal at 3.7 nM (EC50). For the same compound, the IC50 on 5-HT4 receptor was under 20 nM.

Take `CCc1nn(-c2noc(C3CCN(C[C@H]4CCN(C(=O)COC)C4)CC3)n2)c2c(F)cccc12` [Example 210, 1-[(3R)-3-({4-[3-(3-ethyl-7-fluoro-1H-indazol-1-yl)-1,2,4-oxadiazol-5-yl]piperidin-1-yl}methyl)pyrrolidin-1-yl]-2-methoxyethanone hydrochloride]: at human 5-HT4b receptor, the Emax is 68.6% and the midpoint of the response, the EC50, lay at 5 nM. At 5-HT4 receptor, the IC50 is under 20 nM.

For the compound `CCc1nn(-c2noc(C3CCN(C[C@H]4CCN(S(C)(=O)=O)C4)CC3)n2)c2c(F)cccc12` [Example 216, 3-ethyl-7-fluoro-1-[5-(1-{[(3R)-1-(methylsulfonyl)pyrrolidin-3-yl]methyl}piperidin-4-yl)-1,2,4-oxadiazol-3-yl]-1H-indazole], at human 5-HT4b receptor, the Emax worked out at 62.3% and the EC50 worked out at 4.6 nM. Moreover, at 5-HT4 receptor, the IC50 is under 20 nM.

For the compound `CC(=O)N1CC(CN2CCC(c3nc(-n4nc(C(C)C)c5cccc(F)c54)no3)CC2)C1` [Example 219, 1-{3-[(4-{3-[7-fluoro-3-(propan-2-yl)-1H-indazol-1-yl]-1,2,4-oxadiazol-5-yl}piperidin-1-yl)methyl]azetidin-1-yl}ethanone hydrochloride], on human 5-HT4b receptor, the Emax came to 96.9% and the midpoint of the response, the EC50, lay at 2.8 nM. Besides, the IC50 at 5-HT4 receptor was under 20 nM.

As for `COC(=O)N1CC(CN2CCC(c3nc(-n4nc(C(C)C)c5cccc(F)c54)no3)CC2)C1` [Example 220, methyl 3-[(4{3-[7-fluoro-3-(propan-2-yl)-1H-indazol-1-yl]-1,2,4-oxadiazol-5-yl}piperidin-1-yl)methyl]azetidine-1-carboxylate hydrochloride], on human 5-HT4b receptor, the Emax turned out to be 92.4% and a half-maximal effect (EC50) was put at 4.8 nM. In addition, the IC50 at 5-HT4 receptor is under 20 nM.

As for `COCC(=O)N1CC(CN2CCC(c3nc(-n4nc(C(C)C)c5cccc(F)c54)no3)CC2)C1` [Example 221, 1-{3-[(4-{3-[7-fluoro-3-(propan-2-yl)-1H-indazol-1-yl]-1,2,4-oxadiazol-5-yl}piperidin-1-yl)methyl]azetidin-1-yl}-2-methoxyethanone hydrochloride], on human 5-HT4b receptor, the Emax came out at 86.1% and a half-maximal effect (EC50) was put at 6.1 nM. In addition, the IC50 on 5-HT4 receptor is under 20 nM.

For the compound `CCc1nn(-c2noc(C3CCN(CC4CN(C(C)=O)C4)CC3)n2)c2c(F)cccc12` [Example 223, 1-[3-({4-[3-(3-ethyl-7-fluoro-1H-indazol-1-yl)-1,2,4-oxadiazol-5-yl]piperidin-1-yl}methyl)azetidin-1-yl]ethanone hydrochloride], at human 5-HT4b receptor, the Emax came to 72.7% and it took 3.4 nM to reach a half-maximal effect (EC50). At 5-HT4 receptor, the IC50 was under 20 nM.

Take `COCC(=O)N1CCC(N2CCC(c3nc(-n4nc(C(C)C)c5cccc(F)c54)no3)CC2)CC1` [Example 233, 1-(4-{3-[7-fluoro-3-(propan-2-yl)-1H-indazol-1-yl]-1,2,4-oxadiazol-5-yl}-1,4′-bipiperidin-1′-yl)-2-methoxyethanone hydrochloride]: at human 5-HT4b receptor, the Emax was 93.5% and the midpoint of the response, the EC50, lay at 2.9 nM. Also, the IC50 at 5-HT4 receptor was under 20 nM.

As for `CCc1nn(-c2noc(C3CCN(C4CCN(C(=O)COC)CC4)CC3)n2)c2c(F)cccc12` [Example 237, 1-{4-[3-(3-ethyl-7-fluoro-1H-indazol-1-yl)-1,2,4-oxadiazol-5-yl]-1,4′-bipiperidin-1′-yl}-2-methoxyethanone hydrochloride], at human 5-HT4b receptor, the Emax turned out to be 51.9% and a half-maximal effect (EC50) was put at 9.7 nM. Also, the IC50 at 5-HT4 receptor was under 20 nM.

As to `CCc1nn(-c2noc(C3CCN(C4CCN(S(C)(=O)=O)CC4)CC3)n2)c2c(F)cccc12` [Example 241, 4-[3-(3-ethyl-7-fluoro-1H-indazol-1-yl)-1,2,4-oxadiazol-5-yl]-1′-(methylsulfonyl)-1,4′-bipiperidine], at human 5-HT4b receptor, the Emax came to 58.8% and it took 3.2 nM to reach a half-maximal effect (EC50). In addition, at 5-HT4 receptor, the IC50 is under 20 nM.

On to `CCc1nn(-c2noc(C3CCN(C[C@H]4CCN(C(=O)CO)C4)CC3)n2)c2c(F)cccc12` [Example 247, 1-[(3R)-3-({4-[3-(3-ethyl-7-fluoro-1H-indazol-1-yl)-1,2,4-oxadiazol-5-yl]piperidin-1-yl}methyl)pyrrolidin-1-yl]-2-hydroxyethanone], for which, at human 5-HT4b receptor, the Emax is 79% and a half-maximal response (EC50) required 12.7 nM. Besides, the IC50 at 5-HT4 receptor was under 20 nM.

For the compound `CC(C)c1nn(-c2noc(CCCN3CCCCC3)n2)c2c(F)cccc12` [Example 394, 7-fluoro-1-{5-[3-(piperidin-1-yl)propyl]-1,2,4-oxadiazol-3-yl}-3-(propan-2-yl)-1H-indazole], at human 5-HT4b receptor, the Emax was determined as 101% and it took 3.1 nM to reach a half-maximal effect (EC50). Also, the IC50 on 5-HT4 receptor is under 20 nM.

Take `CC(C)c1nn(-c2noc(C3CCN(C(C)(C)CO)CC3)n2)c2c(F)cccc12` [Example 402, 2-(4-{3-[7-fluoro-3-(propan-2-yl)-1-indazol-1-yl]-1,2,4-oxadiazol-5-yl}piperidin-1-yl)-2-methylpropan-1-ol]: on human 5-HT4b receptor, the Emax came to 106% and it took 1.8 nM to reach a half-maximal effect (EC50). Also, at 5-HT4 receptor, the IC50 was under 20 nM.

For `COc1ccc(F)c2c1c(C(C)C)nn2-c1noc(C2CCN(C3CCN(C(C)=O)CC3)CC2)n1` [Example 405, 1-(4-{3-[7-fluoro-4-methoxy-3-(propan-2-yl)-1H-indazol-1-yl]-1,2,4-oxadiazol-5-yl}-1,4′-bipiperidin-1′-yl)ethanone], at human 5-HT4b receptor, the Emax stood at 21.6% and the EC50 came out at 34.2 nM. The IC50 at 5-HT4 receptor stood at 65.4 nM.

`CC(C)c1nn(-c2noc(C3CCN(C4CCC4)CC3)n2)c2ccccc12` [Example 420, 1-[5-(1-cyclobutylpiperidin-4-yl)-1,2,4-oxadiazol-3-yl]-3-(propan-2-yl)-1H-indazole trifluoroacetate]: on human 5-HT4b receptor, the Emax came out at 85.6% and the response was half-maximal at 8.2 nM (EC50). In addition, the IC50 on 5-HT4 receptor worked out at 73.9 nM.

As for `CCc1nn(-c2noc(C3CCN(CC4CCOCC4)CC3)n2)c2cc(C)ccc12` [Example 435, 3-ethyl-6-methyl-1-{5-[1-(tetrahydro-2H-pyran-4-ylmethyl)piperidin-4-yl]-1,2,4-oxadiazol-3-yl}-1H-indazole trifluoroacetate], at human 5-HT4b receptor, the Emax was 1.6% and the midpoint of the response, the EC50, lay at 11.9 nM. Moreover, the IC50 on 5-HT4 receptor worked out at 44.7 nM.
